Source: paper PMC6253875, “Synthesis and Evaluation of Non-peptidic Cysteine Protease Inhibitors of P. falciparum Derived from Etacrynic Acid” (Molecules, 2008)
Where two headings read alike, the source gives them in different places.

What was measured:
falcipain-2 = target: T1, falcipain-2 (Plasmodium falciparum, UniProt Q8I6U4); assay: Inhibition of recombinant falcipain-2, fluorometric microplate assay (Cbz-Phe-Arg-AMC); type: biochemical
T1 construct: made in house; host or cells: E. coli
T1 sequence (Q8I6U4 244-484): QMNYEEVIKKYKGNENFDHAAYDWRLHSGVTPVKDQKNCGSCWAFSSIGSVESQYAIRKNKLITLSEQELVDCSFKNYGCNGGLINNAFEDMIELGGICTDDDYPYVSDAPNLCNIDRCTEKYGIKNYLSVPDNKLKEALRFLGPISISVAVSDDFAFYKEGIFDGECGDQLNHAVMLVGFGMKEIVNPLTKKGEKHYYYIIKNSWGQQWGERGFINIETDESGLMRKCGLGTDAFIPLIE
Protocol: (§1) Recombinant falcipain-2 and falcipain-3 were produced as previously described. Inhibitory activities against recombinant falcipain-2 and falcipain-3 were evaluated in fluorometric microplate assays using the substrates Cbz-Phe-Arg-AMC and Cbz-Leu-Arg-AMC (AMC, 7-amino-4-methyl-coumarin). The cysteine protease inhibitor E-64 was used as a positive control. The solvent DMSO was used as negative control. […] The in vitro data for the etacrynic acid derivatives are compared to those of the well known drug chloroquine and to E-64.
(§2) Falcipain-2 and falcipain-3 were recombinantly expressed in E. coli and refolded to active enzyme as previously described.
(§3) IC50 values for inhibition of falcipain-2 and falcipain-3 were determined as described previously using the fluorogenic substrates Cbz-Phe-Arg-AMC and Cbz-Leu-Arg-AMC, respectively (AMC, 7-amino-4 methylcoumarin). As a positive control the well-known cysteine protease inhibitor E-64 [7, 25, 26] and as a negative control the solvent (DMSO) was used. Dose-dependent effects of compounds on parasite development (P. falciparum strain W2) were quantified by flow cytometry according to a previously published method. First, a screening with inhibitor concentrations of […] was performed and the percentage activity of infected red blood cells (RBCs) relative to the negative control was determined. […] Chloroquine and E-64 were used as positive controls, and the solvent DMSO was used as a negative control. For selected compounds assays with the P. falciparum strain 3D7 were performed using a fluorometric assay with Hoechst-33258 [28], or the microculture tetrazolium test measuring parasite lactate dehydrogenase activity. The parasites were cultivated in vitro as described previously. Compounds were screened at concentrations between 1 nM and 100 μM. Synchronized ring stages were plated in 96-well plates at a parasitemia of 1%, in the presence of the compounds (dissolved in DMSO). Incubation of parasites with DMSO alone at a concentration of 0.5% v/v was used as a negative control. IC50 values were calculated by non-linear regression analyses using the programs GaphPad® Prism 4 and GraFit® [31, 32].

P. falciparum strain W2 = assay: Antiplasmodial activity in vitro, parasite development quantified by flow cytometry; type: cell-based, Plasmodium falciparum; conditions: W2 strain (CQ-resistant), ni = no inhibition; for IC50: read-out: P. f. 3D7/W2, IC50
Protocol: as §3

falcipain-3 = target: T2, falcipain-3 (Plasmodium falciparum, UniProt Q8IIL0); assay: Inhibition of recombinant falcipain-3, fluorometric microplate assay (Cbz-Leu-Arg-AMC); type: biochemical
T2 construct: made in house; host or cells: E. coli
T2 sequence (Q8IIL0 243-492): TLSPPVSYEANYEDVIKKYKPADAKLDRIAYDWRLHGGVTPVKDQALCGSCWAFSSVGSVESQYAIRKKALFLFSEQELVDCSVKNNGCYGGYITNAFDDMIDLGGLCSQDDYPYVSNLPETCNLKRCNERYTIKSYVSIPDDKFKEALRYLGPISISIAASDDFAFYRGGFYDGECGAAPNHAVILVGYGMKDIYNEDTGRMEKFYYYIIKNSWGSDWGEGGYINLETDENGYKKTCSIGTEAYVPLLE
Protocol: as §1, §2, §3

P. falciparum strain 3D7 = assay: Antiplasmodial activity in vitro, Hoechst-33258 fluorometric assay or parasite lactate dehydrogenase test; type: cell-based; conditions: Plasmodium falciparum; 3D7 strain (CQ-sensitive); read-out: P. f. 3D7/W2, IC50
Protocol: as §1, §3

[1] = recombinant falcipain-2, values marked ^a: only one experiment, ni = no inhibition, read-out: FP-2 IC50
[2] = recombinant falcipain-3, ni = no inhibition, read-out: FP-3 IC50
[3] = Plasmodium falciparum, 3D7 / W2
[4] = recombinant falcipain-3, ni = no inhibition
[5] = recombinant falcipain-2, values marked ^a: only one experiment, ni = no inhibition

Structure (SMILES) | IC50 (falcipain-2; [1]) [µM] | P. f. 3D7/W2, IC50 (P. falciparum strain W2) | IC50 (falcipain-3; [2]) [µM] | other results
C=C(CC)C(=O)c1ccc(OCC(=O)N2CCOCC2)c(Cl)c1Cl [Compound 17] | 305 ± 30 | nic | 479 ± 23 | 
C=C(CC)C(=O)c1ccc(OCC(=O)NC(C)(C)C(N)=O)c(Cl)c1Cl [Compound 14] | 318 ± 14 |  |  | IC50 (P. falciparum strain W2; [3]): 29.3 ± 3.4 µM; FP-3 IC50 (falcipain-3; [4]): ni
C=C(CC)C(=O)c1ccc(OCC(=O)NCc2ccccc2)c(Cl)c1Cl [Compound 11] | 333 ± 5 | ni^c | 158 ± 11 | 
CCCCNC(=O)COc1ccc(C(=O)CCC)cc1F [Compound 30, N-butyl-2-(4-butyryl-2-fluorophenoxy)acetamide] |  |  |  | FP-2 IC50 (falcipain-2; [5]): ni
CCCC(=O)c1ccc(OCC(=O)NC(C)(C)C)c(Cl)c1Cl [Compound 26, N-tert-butyl-2-(4-butyryl-2,3-dichloro-phenoxy)-acetamide] | 484 | ni^c |  | FP-3 IC50 (falcipain-3; [4]): ni
CCCC(=O)c1ccc(OCC(=O)NC(C)(C)C)c(F)c1 [Compound 28, N-tert-butyl-2-(4-butyryl-2-fluorophenoxy)acetamide] | 80 ± 6 |  |  | IC50 (P. falciparum strain W2; [3]): 66.4 ± 2.2 µM
CCCC(=O)c1ccc(OCC(=O)OC(C)(C)C)c(F)c1 [Compound 29, Tert-butyl-2-(4-butyryl-2-fluorophenoxy)acetate] | 80 ± 6 |  |  | 
C=C(CC)C(=O)c1ccc(OCC(=O)NC(C(=O)OC)C(C)CC)c(F)c1 (stereo not shown) [Compound 7, Methyl-2-(2-(2-fluoro-4-(2-methylenebutanoyl)phenoxy)acetamido)-3-methylpentanoate] |  |  |  | FP-2 IC50 (falcipain-2; [5]): ni
C=C(CC)C(=O)c1ccc(OCC(=O)OC(C)(C)C)c(F)c1 [Compound 3, Tert-butyl 2-(2-fluoro-4-(2-methylenebutanoyl)phenoxy)acetate] |  |  |  | FP-2 IC50 (falcipain-2; [5]): ni; IC50 (P. falciparum strain 3D7): 142 ± 5 µM
C=C(CC)C(=O)c1ccc(OCC(=O)NC(C)(C)C)c(F)c1 [Compound 5, N-tert-butyl-2-(2-fluoro-4-(2-methylenebutanoyl)phenoxy)acetamide] | 80 ± 5 |  |  | IC50 (P. falciparum strain 3D7): 205 ± 9 µM
C=C(CC)C(=O)c1ccc(OCC(=O)N2CCN(CC)CC2)c(Cl)c1Cl [Compound 19] |  |  |  | IC50 (falcipain-2): 144 ± 11 µM; IC50 (P. falciparum strain W2; [3]): 27.4 ± 4.1 µM; IC50 (falcipain-3): 557 ± 23 µM
C=C(CC)C(=O)c1ccc(Cl)cc1OCC(=O)OCC [Compound 2] | 110 ± 5 | ni^c | 381 ± 21 | 
C=C(CC)C(=O)c1ccc(OCC(=O)NCCCC)c(Cl)c1Cl [Compound 20] | 184 ± 17 | nic | 158 ± 17 | 
CCCC(=O)c1ccc(OCC(=O)NC(C(=O)OC)C(C)CC)c(F)c1 (stereo not shown) [Compound 32, Methyl 2-(2-(4-butyryl-2-fluorophenoxy)acetamido)-3-methylpentanoate] |  |  |  | FP-2 IC50 (falcipain-2; [5]): ni
C=C(CC)C(=O)c1ccc(OCC(=O)NC(CCC(=O)O)C(=O)O)c(Cl)c1Cl (stereo not shown) [Compound 22, 2-{2-[2,3-Dichloro-4-(2-methylene-butyryl)-phenoxy]acetylamino}pentanedioic acid] |  | nic |  | FP-2 IC50 (falcipain-2; [5]): ni; FP-3 IC50 (falcipain-3; [4]): ni
C=C(CC)C(=O)c1ccc(OCC(=O)N[C@H](C)C(=O)OCc2ccccc2)c(Cl)c1Cl [Compound 12] | 165 ± 12 |  |  | 

Structure (SMILES) | IC50 (falcipain-2; [1]) [µM] | P. f. 3D7/W2, IC50 (P. falciparum strain W2) | IC50 (falcipain-3; [2]) [µM] | other results
C=C(CC)C(=O)c1ccc(OCC(=O)O)c(F)c1 [Compound 4, 2-(2-fluoro-4-(2-methylenebutanoyl)phenoxy)acetic acid] |  |  |  | IC50 (P. falciparum strain 3D7): 79.8 ± 6 µM
C=C(CC)C(=O)c1ccc(OCC(=O)OCC)c(Cl)c1 [Compound 1] | 498 ± 8 | ni^c | 346 ± 14 | 
C=C(CC)C(=O)c1ccc(OCC(=O)NC(C)(C)C)c(Cl)c1Cl [Compound 18] | 255 ± 4 | nic | 153 ± 16 | 
C=C(CC)C(=O)c1ccc(OCC(=O)N[C@@H](C)C(=O)OCc2ccccc2)c(Cl)c1Cl [Compound 10] | 178 ± 14 | ni^c | 56.7 ± 5.7 | 
CCCCNC(=O)COc1ccc(C(=O)CCC)c(Cl)c1Cl [Compound 27, N-butyl-2-(4-butyryl-2,3-dichloro-phenoxy)-acetamide] | 713 | ni^c |  | FP-3 IC50 (falcipain-3; [4]): ni
C=C(CC)C(=O)c1ccc(OCC(=O)NCC(=O)N[C@@H](C)C(N)=O)c(Cl)c1Cl [Compound 15] | 212 ± 17 | nic |  | FP-3 IC50 (falcipain-3; [4]): ni
C=C(CC)C(=O)c1ccc(OCC(=O)Nc2ccccc2)c(Cl)c1Cl [Compound 13] | 269 ± 21 | nic | 87.2 ± 6 | 
C=C(CC)C(=O)c1ccc(OCC(=O)NCCCCCCNC(=O)CCCCC2SCC3NC(=O)NC32)c(Cl)c1Cl (stereo not shown) [Compound 24, 5-(2-Oxo-hexahydro-thieno[3,4-d]imidazol-4-yl)pentanoic acid (6-{2-[2,3-dichloro-4-(2-methylene-butyryl)-phenoxy]acetylamino}-hexyl)-amide] | 3 ± 1.1 |  | 11.9 ± 1.1 | IC50 (P. falciparum strain W2; [3]): 9 ± 0.4 µM
CC(C)C[C@H](NC(=O)[C@H]1O[C@@H]1C(=O)O)C(=O)NCCCCN=C(N)N [E-64, reference compound] | 0.015 ± 0.008 |  | 0.075 ± 0.02 | IC50 (P. falciparum strain W2): 5.3 ± 1.05 µM
C=C(CC)C(=O)c1ccc(OCC(=O)NCC(=O)N[C@@H](Cc2ccccc2)C(N)=O)c(Cl)c1Cl [Compound 16] | 242 ± 19 | nic |  | FP-3 IC50 (falcipain-3; [4]): ni
CCC(C)C(=O)c1ccc(OCC(=O)O)c(Cl)c1Cl (stereo not shown) [Compound 25] | 531 | ni^c |  | FP-3 IC50 (falcipain-3; [4]): ni
C=C(CC)C(=O)c1ccc(OCC(=O)OCC)c(Cl)c1Cl [Compound 9] | 60.6 ± 4.2 | ni^c | 163 ± 5.6 | 
C=C(CC)C(=O)c1ccc(OCC(=O)NCCCCCC)c(Cl)c1Cl [Compound 21] | 182 ± 9 | nic | 123 ± 8 | 
C=C(CC)C(=O)c1ccc(OCC(=O)O)c(Cl)c1Cl [Compound 8, etacrynic acid] | 443 ± 17 | ni^c |  | FP-3 IC50 (falcipain-3; [4]): ni
CCCC(=O)c1ccc(OCC(=O)NC(C)(C)CO)c(F)c1 [Compound 31, 2-(4-Butyryl-2-fluorophenoxy)-N-(1-hydroxy-2-methylpropan-2-yl)acetamide] |  |  |  | FP-2 IC50 (falcipain-2; [5]): ni
